According to patent US11583217B2, “Neurophysiological data analysis using spatiotemporal parcellation” (Firefly Neuroscience Ltd., priority 2012, dated 2023):

What was measured:
Assay type in all cases: in vivo, human
ADHD subject = assay: BNA pattern similarity from EEG data of ADHD subjects treated with MPH
Description: The BNA patterns shown in FIGS. 6A-6D are associated subject-specific BNA patterns constructed from EEG data recorded from a particular ADHD subject. The black dots in FIGS. 6A-6D show the locations of the EEG electrodes. The color codes in these BNA patterns are the same as defined above. The subject-specific BNA patterns shown in FIGS. 6A-6B describe the association of the ADHD subject to a group of untreated ADHD subjects, and the BNA patterns shown in FIGS. 6C-6D describe the association of the ADHD subject to a group of ADHD subjects all treated with methylphenidate (MPH). The subject-specific BNA patterns shown in FIGS. 6A and 6C are based on EEG data recorded from the ADHD subject before any treatment, and subject-specific BNA patterns shown in FIGS. 6B and 6D are based on EEG data recorded from the ADHD subject following a treatment with MPH.
The baseline annotated BNA pattern constructed from the group of untreated ADHD subjects, and the baseline annotated BNA pattern constructed from the same group of subjects, but following treatment with MPH are shown in FIGS. 6E and 6F, respectively.
The calculated similarity corresponding to the BNA pattern of FIG. 6A is 0.73, the calculated similarity corresponding to the BNA pattern of FIG. 6B is 0.19, the calculated similarity corresponding to the BNA pattern of FIG. 6C is 0.56, and the calculated similarity corresponding to the BNA pattern of FIG. 6D is 0.6.
The BNA patterns shown in FIGS. 7A-7D were constructed from EEG data recorded from a different ADHD subject, which was also treated with MPH according to the same protocol as described above with respect to the responder subject of FIGS. 6A-6D. The black dots in FIGS. 7A-7D show the locations of the EEG electrodes, and the color codes in these BNA patterns is the same as defined above. Thus, the subject-specific BNA patterns shown in FIGS. 7A-7B describe the association of the ADHD subject to a group of untreated ADHD subjects, and the BNA patterns shown in FIGS. 7C-7D describe the association of the ADHD subject to a group of ADHD subjects all treated with methylphenidate (MPH). The subject-specific BNA patterns shown in FIGS. 7A and 7C are based on EEG data recorded from the ADHD subject before any treatment, and subject-specific BNA patterns shown in FIGS. 7B and 7D are based on EEG data recorded from the ADHD subject following a treatment with MPH.
The calculated similarity corresponding to the BNA pattern of FIG. 7A is 0, the calculated similarity corresponding to the BNA pattern of FIG. 7B is 0, the calculated similarity corresponding to the BNA pattern of FIG. 7C is 0.06, and the calculated similarity corresponding to the BNA pattern of FIG. 7D is 0.

[1] = system: healthy volunteer subjects; assay: Clinical observation of behavioral endpoint following scopolamine; conditions: following treatment with scopolamine
Description: (§1) The calculated similarities are 0.937, 0.079, 1.0 and 0.94, respectively. It is recognized by the present inventors that these similarity values indicate that the responsivity to scopolamine is high for the first subject (FIGS. 8A and 8B) and low for the second subject (FIGS. 8C and 8D).

groups of subjects = assay: Group BNA patterns from EEG data during working memory test (cue/probe); conditions: vs placebo
Description: FIGS. 10A-10H show group BNA patterns constructed from EEG data recorded from two groups of subjects during a working memory test. The black dots in FIGS. 10A-10H show the locations of the EEG electrodes, and the color codes in these BNA patterns is the same as defined above. During the test, each subject of the group was asked to memorize an image of a human face (referred to as the “cue”). Two seconds later, the subject was again presented with an image of a human face (referred to as the “probe”) and was asked to determine whether the probe matches the cue.
FIGS. 10A and 10B are group BNA patterns constructed following treatment with a placebo (referred to below as placebo A), and FIGS. 10C and 10D are group BNA patterns constructed following treatment with a Scopolamine. The BNA patterns of the second group are shown in FIGS. 10E-10H, where FIGS. 10E and 10F are group BNA patterns constructed following treatment with a placebo (referred to below as placebo B), and FIGS. 10G and 10H are BNA patterns constructed following treatment with a Ketamine.
The BNA pattern of FIGS. 10A, 10C, 10E and 10G were constructed from the data acquired during the time at which the cue was presented and are recognized by the present inventor as containing information pertaining to the memorization process in the brain (also known in the literature as “encoding”). The BNA patterns of FIGS. 10B, 10D, 10F and 10H were constructed from the data acquired during the time at which the probe was presented, and are recognized by the present inventor as containing information pertaining to the retrieval process in the brain. It is noted that the BNA patterns of FIGS. 10A-10H describe differentiating activity networks. Thus, for example, the BNA pattern of FIG. 10A describes the brain activity during […] that most differentiated between placebo A and Scopolamine, and the BNA pattern of FIG. 10B describes the brain activity during […] that most differentiated between placebo B and Ketamine.

healthy volunteers = assay: Scopolamine induced cognitive impairment model, ΔBNA scores in Auditory Oddball Task; conditions: scopolamine 0.4 mg, Novel stimulus, connectivity score; only 2 patients on placebo
Description: The task chosen for this study was the Auditory Oddball Task, but other tasks are not excluded from the scope of the present invention. FIG. 21 is a schematic representation of an Auditory Oddball Task used in this study. The task included 600 repetitive 1000 ms auditory stimulations of which 80% were 2000 Hz stimuli (Frequent—blue circles), 10% were 1000 Hz stimuli requiring a motor response (Target—red circles) and 10% were rare non-targets composed of various sounds (Novel—yellow star). The stimuli were separated by 1500 ms intervals. The sound was delivered through a headset at a sound pressure level of 70 dB.
• Repeatability: Within-subject BNA score repeatability was assessed by computing the Intraclass Correlation. • Normality Tests: Normality of ΔBNA distributions was evaluated using the Kolmogorov-Smirnov test of normality (p≥0.200) and validated with corresponding Q-Q plots. • SEM Computation: The change over time in the BNA Scores of a subject/patient from baseline (ΔBNA) is evaluated in terms of standard error of measurements (SEM) against the Normative Database to determine likelihood of true change.
A pharmacological model study included 13 healthy volunteers of both genders, Aged 18-45. […] The second and third sessions were at random order, double blind. ΔBNA Score values (Baseline—Placebo and Baseline—Drug) were evaluated against SEM values. […]

[2] = system: healthy volunteer subjects; assay: BNA pattern similarity from EEG data of healthy volunteers during attention oddball task, scopolamine vs placebo
Description: FIGS. 8A-8D show associated subject-specific BNA patterns constructed from EEG data recorded from two healthy volunteer subjects. The black dots in FIGS. 8A-8D show the locations of the EEG electrodes, and the color codes in these BNA patterns are the same as defined above. The subject-specific BNA patterns shown in FIGS. 8A-8D describe the association of the subjects to a group of healthy subjects following treatment with a placebo drug and while performing an attention task related oddball task.
FIGS. 8A and 8C are subject-specific BNA patterns constructed from EEG data collected from a first subject (FIG. 8A) and a second subject (FIG. 8C) following treatment with a placebo, and FIGS. 8B and 8D are subject-specific BNA patterns constructed from EEG data collected from the first subject (FIG. 8B) and the second subject (FIG. 8D) following treatment with a scopolamine drug. Scopolamine is an anticholinergic drug with inhibitory effect on M2-cholinergic receptors of excited type. It has an inhibitory effect on the cerebral cortex, typically inducing slight-anesthetic effect.
as §1

SMILES | responsiveness to treatment inferred from similarity values (ADHD subject; ADHD subject of FIGS. 6A-6D) | responsiveness to treatment inferred from similarity values (ADHD subject; ADHD subject of FIGS. 7A-7D) | BNA pattern similarity to baseline BNA pattern of untreated ADHD group (ADHD subject; different ADHD subject, following MPH (FIG. 7B), 0 before treatment) | BNA pattern similarity to baseline BNA pattern of MPH-treated ADHD group (ADHD subject; different ADHD subject, following MPH (FIG. 7D), 0.06 before treatment) | BNA pattern similarity to baseline BNA pattern of untreated ADHD group (ADHD subject; responder ADHD subject, following single dose MPH (FIG. 6B), 0.73 before treatment) | BNA pattern similarity to baseline BNA pattern of MPH-treated ADHD group (ADHD subject; responder ADHD subject, following single dose MPH (FIG. 6D), 0.56 before treatment) | decrease in behavioral endpoint ([1]; first subject) | change in behavioral endpoint ([1]; second subject) | central and frontal activation in the group BNA pattern (groups of subjects) | fronto-parietal part of the group BNA pattern (groups of subjects) | patients with post-treatment BNA scores more than 2 SEM lower than the baseline score (healthy volunteers) | responsivity to scopolamine ([2]; first subject (FIGS. 8A and 8B)) | BNA pattern similarity to baseline BNA pattern of placebo-treated healthy group ([2]; first subject, following scopolamine (FIG. 8B), 0.937 after placebo) | responsivity to scopolamine ([2]; second subject (FIGS. 8C and 8D)) | BNA pattern similarity to baseline BNA pattern of placebo-treated healthy group ([2]; second subject, following scopolamine (FIG. 8D), 1.0 after placebo) | right lateralization in the group BNA pattern (groups of subjects)
COC(=O)C(c1ccccc1)C1CCCCN1 (stereo not drawn) [MPH, methylphenidate] | responsive to the treatment | not responsive to the treatment | 0 | 0 | 0.19 | 0.6 |  |  |  |  |  |  |  |  |  | 
CN1[C@@H]2C[C@@H](OC(=O)[C@H](CO)c3ccccc3)C[C@H]1[C@@H]1O[C@@H]12 [scopolamine] |  |  |  |  |  |  | 70% | no change | extensive compensatory central and frontal activation | low connectivity between frontal and parietal regions | Eight out of 13 | high | 0.079 | low | 0.94 | 
CNC1(c2ccccc2Cl)CCCCC1=O (stereo not drawn) [ketamine] |  |  |  |  |  |  |  |  | increased central and frontal activation | No significant change |  |  |  |  |  | decreased right lateralization
